Source: patent publication EP4227307A1 (Genzyme Corporation, priority 2022, dated 2023)
Where a name gives a salt, the structure may show the parent alone.

The compounds below were run against T1, human recombinant 6His-Nterm SHP2 full-length (Thr2-Arg593) (Homo sapiens, UniProt Q06124) (assay: SHP2 Phosphatase Assay (DiFMUP fluorescence)). Details: SHP2 0.2 nM pre-incubated with 100 nM bi-phosphorylated activating peptide; compound 1000-0.05 nM, 30 min pre-incubation; DiFMUP 20 µM, 45 min, room temperature; 10-concentration dose-response.
T1 construct: 6His-Nterm SHP2 full-length (Thr2-Arg593, R&D system); 6His (N); purchased R&D system
T1 sequence (Q06124 2-593): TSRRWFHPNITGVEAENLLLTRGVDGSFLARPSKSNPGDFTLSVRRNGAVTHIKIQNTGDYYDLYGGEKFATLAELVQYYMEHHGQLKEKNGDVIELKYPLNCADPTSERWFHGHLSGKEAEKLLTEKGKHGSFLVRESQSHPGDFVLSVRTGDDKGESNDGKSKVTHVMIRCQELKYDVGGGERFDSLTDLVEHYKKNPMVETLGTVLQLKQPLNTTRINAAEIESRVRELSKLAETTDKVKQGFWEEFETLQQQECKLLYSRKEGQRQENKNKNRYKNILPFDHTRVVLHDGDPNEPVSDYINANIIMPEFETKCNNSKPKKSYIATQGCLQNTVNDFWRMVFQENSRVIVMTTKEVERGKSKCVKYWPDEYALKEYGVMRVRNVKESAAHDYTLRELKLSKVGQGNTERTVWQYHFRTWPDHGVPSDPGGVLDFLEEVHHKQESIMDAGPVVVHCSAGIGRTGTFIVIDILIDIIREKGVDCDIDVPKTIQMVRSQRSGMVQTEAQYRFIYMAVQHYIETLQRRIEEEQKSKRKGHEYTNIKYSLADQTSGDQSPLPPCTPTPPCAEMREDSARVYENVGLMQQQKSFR
Assay type: biochemical
Protocol: Inhibition of SHP2 phosphatase activity was evaluated using human recombinant 6His-Nterm SHP2 full-length (Thr2-Arg593, R&D system), NsCs bi-phosphorylated activating peptide (NH2-LN(pY)AQLWHA(PEG8)LTI(pY)ATIRRF-Amide.acetate, Thermofischer Scientific) and DiFMUP as surrogate phosphatase substrate (Molecular Probes). All reactions were performed at room temperature in 384-well black polystyrene non-binding plate (Corning) with the assay buffer (50 mM HEPES-NaOH pH 7.2, 100 mM NaCl, 0.5 mM EDTA, 0.001% Brij35 including 0.02% BSA and 1 mM DTT added extemporaneously). SHP2 was pre-incubated at least 10 min with the activating peptide (0.2 nM and 100 nM, respectively). 10 µL of this mixture was added to the assay plate, that already contained 15 nL of the compound (1000-0.05 nM). After 30 min pre-incubation, the enzymatic reaction was initiated by the addition of 5 µL DiFMUP in assay buffer without BSA (20 µM). The reaction was stopped by the addition of 15 µL sodium pervanadate solution (100 µM) after 45 min incubation. The fluorescence signal was measured at excitation and emission wavelengths of 350 nm and 450 nm, respectively, using a Pherastar instrument (BMG-LabTech). Percentage of inhibition […] were calculated from the fluorescence signal at 450 nm of the positive and negative control using the following formula: I% = ((signal Max−signal Sample)/(signal Max−signal Min control)) × 100 [formula]
Positive control (Max): corresponds to the maximum fluorescence signal obtained in the presence of 15 nL DMSO replacing the inhibitor in the pre-incubation step.
Negative control (Min): corresponds to the minimum signal obtained in the presence of 1 µM of RMC-4550, the structure of which is shown below: [drawing 464]
The IC50 were then calculated from a dose-response curve of 10 concentrations of tested compound using the 4-parameter logistic model: I% = A + (C)/(1 + exp(−B×log(X)−M)) [formula]
The parameters A and (A+C) are the lower and upper limits, B is the slope of the curve at the inflexion point, M parameter is the logarithm of the abscissa at the inflexion point, and X is the concentration of compound.

**Q.** Cc1nc(N2CCC3(CC2)Cc2ncccc2[C@H]3N)c2c(C(F)F)cnn2c1-c1ccccc1F [Compound 147, (5S)-1'-[3-(difluoromethyl)-7-(2-fluorophenyl)-6-methyl-pyrazolo[1,5-a]pyrazin-4-yl]spiro[5,7-dihydrocyclopenta[b]pyridine-6,4'-piperidine]-5-amine] was tested. Which IC50 did it give?
**A.** > 1000 nM

**Q.** With COc1cccc2c1CC1(CCN(c3nc(C)c(-c4cnn(C)c4C)n4nccc34)CC1)[C@@H]2N [Compound 111, (1S)-1-[7-(1,5-dimethylpyrazol-4-yl)-6-methyl-pyrazolo[1,5-a]pyrazin-4-yl] -4-methoxy-spiro[indane-2,4'-piperidine]-1-amine] as the compound, how does the IC50 read?
**A.** 16 nM

**Q.** With Cc1nc(N2CCC3(CC2)Cc2ccc(C#N)cc2[C@@H]3N)c2ccnn2c1-c1cnn(C)c1C (single isomer, unassigned) [Compound 212] as the compound, how does the IC50 read?
**A.** 288 nM

**Q.** How did the IC50 turn out when Cc1nc(N2CCC3(CC2)Cc2c(F)cc(F)cc2[C@H]3N)c2ccnn2c1-c1cnn(C)c1C [Compound 102, (1S)-1'-[7-(1,5-dimethylpyrazol-4-yl)-6-methyl-pyrazolo[1,5-a]pyrazin-4-yl]-4,6-difluoro-spiro[indane-2,4'-piperidine]-1-amine hydrochloride] was run?
**A.** 17 nM

**Q.** How did the IC50 turn out when COc1cccc(-c2cnc(N3CCC4(CC3)Cc3ncccc3[C@H]4N)c3ccnn23)c1F [Compound 85, (5S)-1'-[7-(2-fluoro-3-methoxyphenyl)pyrazolo[1,5-a]pyrazin-4-yl]spiro[5,7-dihydrocyclopenta[b]pyridine-6,4'-piperidine] -5-amine hydrochloride] was run?
**A.** 27 nM

**Q.** Cc1nc(N2CCC3(CC2)Cc2ncccc2[C@H]3N)c2ccnn2c1-c1ccncc1F [Compound 71, (5S)-1'-[7-(3-fluoro-4-pyridyl)-6-methyl-pyrazolo[1,5-a]pyrazin-4-yl]spiro[5,7-dihydrocyclopenta[b]pyridine-6,4'-piperidine]-5-amine hydrochloride] was tested. Which IC50 did it give?
**A.** 30 nM

**Q.** COc1ccc2c(c1)CC1(CCN(c3nc(C)c(-c4cnn(C)c4C)n4nccc34)CC1)[C@@H]2N [Compound 62, (1S)-1'-[7-(1,5-dimethylpyrazol-4-yl)-6-methyl-pyrazolo[1,5-a]pyrazin-4-yl]-5-methoxy-spiro[indane-2,4'-piperidine]-1-amine] was tested. Which IC50 did it give?
**A.** 17 nM

**Q.** With COc1cccc(-c2c(C)nc(N3CCC4(CC3)Cc3ncccc3[C@H]4N)c3ccnn23)c1Cl [Compound 3, (5S)-1'-(7-(2-chloro-3-methoxyphenyl)-6-methylpyrazolo[1,5-a]pyrazin-4-yl)-5,7-dihydrospiro [cyclopenta[b]pyridine-6,4'-piperidin] -5-amine hydrochloride] as the compound, how does the IC50 read?
**A.** 3 nM

**Q.** With Cc1nc(N2CCC3(CC2)Cc2ncccc2[C@H]3N)c2ccnn2c1-c1ccnc(C(F)(F)F)c1 [Compound 49, (5S)-1'-[6-methyl-7-[2-(trifluoromethyl)-4-pyridyl]pyrazolo[1,5-a]pyrazin-4-yl]spiro[5,7-dihydrocyclopenta[b]pyridine-6,4'-piperidine]-5-amine] as the compound, how does the IC50 read?
**A.** 130 nM

**Q.** For Cc1nc2c(s1)[C@@H](N)C1(CCN(c3nc(C)c(-c4ccnc(C)c4Cl)n4nccc34)CC1)C2 [Compound 84, (6S)-1'-[7-(3-chloro-2-methyl-4-pyridyl)-6-methyl-pyrazolo[1,5-a]pyrazin-4-yl]-2-methyl-spiro[4,6-dihydrocyclopenta[d]thiazole-5,4'-piperidine]-6-amine hydrochloride], which IC50 is on record?
**A.** 5 nM

**Q.** Cc1nc(N2CCC3(CC2)Oc2ncccc2[C@H]3N)c2ccnn2c1-c1cccc(F)c1Cl [Compound 14, (3R)-1'-[7-(2-chloro-3-fluorophenyl)-6-methyl-pyrazolo [1 ,5-a]pyrazin-4-yl]spiro[3H-furo[2,3-b]pyridine-2,4'-piperidine]-3-amine] was tested. Which IC50 did it give?
**A.** 40 nM

**Q.** How did the IC50 turn out when COc1cc2c(cn1)CC1(CCN(c3nc(C)c(-c4ccnc(C)c4Cl)n4nccc34)CC1)[C@@H]2N [Compound 137, (5S)-1'-[7-(3-chloro-2-methyl-4-pyridyl)-6-methyl-pyrazolo[1,5-a]pyrazin-4-yl]-3-methoxy-spiro[5,7-dihydrocyclopenta[c]pyridine-6,4'-piperidine]-5-amine] was run?
**A.** 6 nM

**Q.** Cc1nc(N2CCC3(CC2)Cc2ncccc2[C@H]3N)c2ccnn2c1-c1sccc1Cl [Compound 38, (5S)-1'-[7-(3-chloro-2-thienyl)-6-methyl-pyrazolo[1,5-a]pyrazin-4-yl]spiro[5,7-dihydrocyclopenta[b]pyridine-6,4'-piperidine]-5-amine] was tested. Which IC50 did it give?
**A.** 12 nM

**Q.** Which IC50 does the source give for Cc1nc(-c2c(C)nc(N3CCC4(CC3)Cc3ncccc3[C@H]4N)c3ccnn23)cs1 [Compound 158, (5S)-1'-[6-methyl-7-(2-methylthiazol-4-yl)pyrazolo[1,5-a]pyrazin-4-yl]spiro[5,7-dihydrocyclopenta[b]pyridine-6,4'-piperidine] -5-amine hydrochloride] here?
**A.** 47 nM

**Q.** Which IC50 does the source give for N[C@@H]1c2cccnc2CC12CCN(c1ncc(-c3cnn4ccccc34)n3nccc13)CC2 [Compound 90, (5S)-1'-(7-pyrazolo[1,5-a]pyridin-3-ylpyrazolo[1,5-a]pyrazin-4-yl)spiro [5,7-dihydrocyclopenta[b]pyridine-6,4'-piperidine] -5-amine hydrochloride] here?
**A.** 13 nM

**Q.** How did the IC50 turn out when Cc1nc(N2CCC3(CC2)Cc2ncccc2[C@H]3N)c2ccnn2c1-c1ccc(F)cc1F [Compound 193, (5S)-1'-[7-(2,4-difluorophenyl)-6-methyl-pyrazolo[1,5-a]pyrazin-4-yl]spiro[5,7-dihydrocyclopenta[b]pyridine-6,4'-piperidine]-5-amine] was run?
**A.** 3 nM

**Q.** For Cc1nc(N2CCC3(CC2)Cc2ncccc2[C@H]3N)c2ccnn2c1-c1ccnc(C2CC2)c1Cl [Compound 40, (5S)-1'-[7-(3-chloro-2-cyclopropyl-4-pyridyl)-6-methyl-pyrazolo[1,5-a]pyrazin-4-yl]spiro[5,7-dihydrocyclopenta[b]pyridine-6,4'-piperidine]-5-amine], which IC50 is on record?
**A.** 10 nM

**Q.** For Cc1ccccc1-c1c(C)nc(N2CCC3(CC2)Cc2ncccc2[C@H]3N)c2ccnn12 [Compound 52, (5S)-1'-[6-methyl-7-(o-tolyl)pyrazolo[1,5-a]pyrazin-4-yl]spiro[5,7-dihydrocyclopenta[b]pyridine-6,4'-piperidine]-5-amine], which IC50 is on record?
**A.** 24 nM

**Q.** For Cc1cc2c(cn1)CC1(CCN(c3nc(C)c(-c4ccnc(C)c4Cl)n4nccc34)CC1)[C@@H]2N [Compound 112, (5S)-1'-[7-(3-chloro-2-methyl-4-pyridyl)-6-methyl-pyrazolo[1,5-a]pyrazin-4-yl]-3-methyl-spiro[5,7-dihydrocyclopenta[c]pyridine-6,4'-piperidine]-5-amine hydrochloride], which IC50 is on record?
**A.** 5 nM

**Q.** COc1nc2c(s1)[C@@H](N)C1(CCN(c3nc(C)c(-c4cnn(C)c4C)n4nccc34)CC1)C2 [Compound 220, (6S)-1'-[7-(1,5-Dimethylpyrazol-4-yl)-6-methyl-pyrazolo[1,5-a]pyrazin-4-yl]-2-methoxy-spiro[4,6-dihydrocyclopenta[d]thiazole-5,4'-piperidine]-6-amine] was tested. Which IC50 did it give?
**A.** 26 nM

**Q.** With Cc1nc(N2CCC3(CC2)Cc2ncccc2[C@H]3N)c2cc(C(F)F)nn2c1-c1cnn(C)c1C [Compound 36, (5S)-1'-[2-(difluoromethyl)-7-(1,5-dimethylpyrazol-4-yl)-6-methyl-pyrazolo[1,5-a]pyrazin-4-yl]spiro[5,7-dihydrocyclopenta[b]pyridine-6,4'-piperidine]-5-amine] as the compound, how does the IC50 read?
**A.** 228 nM

**Q.** Which IC50 does the source give for Cc1nc(N2CCC3(CC2)Oc2ncccc2[C@H]3N)c2ccnn2c1-c1ccc(F)c2cc[nH]c12 [Compound 16, (3R)-1'-[7-(4-fluoro-1H-indol-7-yl)-6-methyl-pyrazolo[1,5-a]pyrazin-4-yl]spiro[3H-furo[2,3-b]pyridine-2,4'-piperidine]-3-amine] here?
**A.** 42 nM
